The text below walks through data of patent US11904038B2 (INDUSTRY-ACADEMIC COOPERATION FOUNDATION, YONSEI UNIVERSITY, priority 2017, dated 2024).

One experiment has as its system cAMP. The experiment can be described thus: cAMP complete ELISA. Format: cell-based, human. Particulars: phellandrene 20 μM, 24 hours, vs DMSO, FIG. 4. The procedure:
(§1) DMSO was used as a negative control group. The phellandrene-treated culture solutions were collected after 24 hours, and experiments were conducted using human VEGF ELISA Kit (Enzo Life Sciences, NY, USA), human IGF-1 ELISA kit (Enzo Life Sciences, NY, USA), and cAMP complete ELISA kit (Enzo Life Sciences, NY, USA), respectively, according to the manufacturers' protocol.
(ELISA stands for enzyme-linked immunosorbent assay.)

Another experiment has as its system PKA Cα. Put plainly: Western blot analysis of PKA Cα. Format: cell-based, human. Particulars: phellandrene 20 μM, protein, (A) of FIG. 5. The procedure:
(§2) Protein quantification was performed by Bradford assay.
(§3) 40 μg of the protein was electrophoresed on 10% SDS polyacrylamide gel and then transferred to nitrocellulose membranes. The protein was allowed to react with each of PKA Cα, β-catenin, β-actin, and GAPDH antibody (Cell Signaling Technology, Danvers, MA, USA). Each protein's signal was visualized with a chemiluminescent detection system (Amersham), and then the band's thickness was quantified using the Quantity One Analysis Software (Bio-Rad Laboratories).
On the technique in general: A western blot detects proteins with antibodies after separation by electrophoresis.

Another experiment relates to Cyc-D. The experiment can be described thus: RT-PCR mRNA expression of Cyc-D. The format is cell-based, human. Particulars: phellandrene 20 μM, 24 hours, FIG. 6. As for the experimental part:
(§4) 24 hours after the treatment, the cells were collected and total RNA was extracted with Trizol Reagent (Gibco BRL, USA). The total RNA was quantified by absorbance measurement at 260 nm.
(§5) After isolation of RNA, cDNA was synthesized by performing reverse transcription using oligo dT primers and SuperScript reverse transcriptase (GIBCOBRL, Gaithersburg, MD, USA). PCR was performed using, as a template, cDNA obtained through reverse transcription and using, as primers, 5′ and 3′ flanking sequences of the gene's cDNA to be amplified. Here, required primers were obtained by making a request for synthesis with a company specializing in primer manufacturing (BIONEER CORPORATION, Korea) and used. To a mixture obtained by mixing of 5 μl of 10× reaction buffer [100 mM KCL, 20 mM Tris-HCl (pH 8.0), 2.5 mM MgCl2], 4 μl of 10 mM dNTP, and 1 μl each of 0.2 μM sense and antisense primers, were added 2 μl of the completed cDNA reaction mixture and 2.5 unit of Taq polymerase (Takara, Japan). Then, the volume was adjusted with 50 μl of distilled water, and PCR was performed using a PCR instrument. PCR conditions were set to 94° C. for 4 minutes, 94° C. (30 seconds), 30 cycles of [52° C. (30 seconds), 72° C. (45 seconds)], and 72° C. for 10 minutes.

The subject of experiment [1] is IGF-1. The experiment can be described thus: human IGF-1 ELISA of culture solutions. Particulars: phellandrene 20 μM, 24 hours, vs DMSO, (B) of FIG. 3. The format is cell-based. As for the experimental part: as §1
In experiment [2] the test system is WEHI-3 murine leukemia cells. Particulars: in vitro, Lin et al. 2015; cited from earlier work.
For experiment [3], the system named is VEGF. The experiment can be described thus: human VEGF ELISA of culture solutions. The settings on record: phellandrene 20 μM, 24 hours, vs DMSO, (A) of FIG. 3. The format is cell-based. As for the experimental part: as §1
Experiment [4] deals with IGF-1. The experiment can be described thus: RT-PCR mRNA expression of IGF-1. Format: cell-based, human. Particulars: phellandrene 20 μM, 24 hours, FIG. 6. The procedure:
as §4, §5

For experiment [5], the system named is VEGF. Put plainly: RT-PCR mRNA expression of VEGF. Particulars: phellandrene 20 μM, 24 hours, FIG. 6. Format: cell-based, human. The procedure:
as §4, §5

In a further experiment the test system is LEF. The experiment can be described thus: RT-PCR mRNA expression of LEF. Particulars: phellandrene 20 μM, 24 hours, FIG. 6. Format: cell-based, human. The procedure:
as §4, §5

For experiment [6], the system named is human hair dermal papilla cells. The experiment can be described thus: MTT assay: cell viability and proliferation in human hair dermal papilla cells. The settings on record: FIG. 2.
Method: Human hair dermal papilla cells were purchased from PromoCell GmbH (Heidelberg, Germany). The human hair dermal papilla cells were cultured in an incubator at 37° C., 5% CO2 using HFDPC medium (PromoCell, Germany) with fetal bovine serum (FBS) and Dulbecco's modified Eagle's medium (DMEM; Gibco BRL, Gaithersburg, MD, USA). Due to the nature of the cells, cells at passages 2 to 5 were used for all experiments.
The human hair dermal papilla cells were dispensed into 24-well plates to 1×10^5 cells/well, and then cultured for 24 hours in an incubator at 37° C., 5% CO2 so that the cells are stabilized. Treatment with samples at respective concentrations (0, 10, 20, 50, 100, 200, 400 μg/ml) was performed and culture was performed for 24 hours. Then, treatment with 100 ul of 3-(4,5-dimethylthiazol-2-yl)-2,5-diphenyltetrazolium bromide (MTT; Sigma Aldrich, St. Louis, USA) reagent at a concentration of 200 mg/ml was performed and culture was performed again for 4 hours. After removing the medium, the precipitate (formazan) was dissolved in DMSO and the absorbance was measured at a wavelength of 540 nm. A proliferation rate thereof was evaluated based on the absorbance of a control group containing only DMSO.
The group containing only DMSO was set as a control group. […] Then, culture was performed for 24 hours, and cell viability was measured through an MTT assay.
Experiment [7] relates to neutrophil migration and mast cell stabilization. Particulars: Siqueira et al. 2016; cited from earlier work.
The subject of another experiment is β-catenin. The experiment can be described thus: Western blot analysis of β-catenin. The settings on record: phellandrene 20 μM, protein, (B) of FIG. 5. The format is cell-based, human. The procedure:
as §2, §3

For phellandrene, in the experiment on cAMP, the “increase in cAMP concentration” value was found to be 30%. In addition, the “increase in expression of PKA Cα” value in the experiment with PKA Cα was found to be 42%. The “increase in mRNA expression of Cyc-D” value with Cyc-D is 250%. Further, in the experiment with IGF-1 [1], the “increase in concentration of IGF-1” value was 18%. Moreover, the “known physiological function: apoptosis in leukemia cells” value in experiment [2] was “induce apoptosis in leukemia cells”. The “increase in concentration of VEGF” value in the experiment with VEGF [3] was 27%. Besides, the “increase in mRNA expression of IGF” value with IGF-1 [4] came out at 217%. For the same substance, the “increase in mRNA expression of VEGF” value in the experiment on VEGF [5] came to 247%. In addition, the “increase in mRNA expression of LEF” value with LEF is on record as 348%. Also, the figures for the proliferation rate increase in [6] (phellandrene 10 μM), in [6] (phellandrene 20 μM) and in [6] (phellandrene 50 μM) were 10.8%, 24% and 18%, respectively. Further, the “known physiological function: anti-inflammatory” value in experiment [7] is “serve as an anti-inflammatory agent”. Besides, the “increase in expression of β-catenin in the cell nucleus” value in the experiment with β-catenin was found to be 30%.
